Data: patent US12194039B2, “Methods of treating heart failure by administering omecamtiv mecarbil” (Cytokinetics, Inc., priority 2020, dated 2025)

Legend:
[1] = system: patients with heart failure and reduced ejection fraction; format: in vivo
Method: The study was event-driven and was ended after approximately 1590 cardiovascular deaths. The overall type I error was 0.05 for 2-sided testing across primary and secondary endpoints with control for multiplicity testing. A single interim efficacy analysis was conducted after approximately two-thirds of the targeted number of cardiovascular deaths accrued with a one-sided alpha of 0.0005. Given the negligible impact of this interim on the final alpha, the full 0.05 was used in the final analysis consistent with the Haybittle-Peto approach. […] The mean differences in the KCCQ TSS change from baseline to Week 24 were estimated using a mixed model stratified by randomization setting (inpatient and outpatient) containing baseline TSS value, region, baseline eGFR, scheduled visit, treatment group, and the interaction of treatment group with scheduled visit. A joint omnibus F-test was used to test the treatment effect for the KCCQ TSS. An overall pooled estimate for the KCCQ TSS treatment difference to placebo were conducted using a likelihood based approach. The prespecified safety analyses included: serious adverse events; adverse events associated with discontinuation of study treatment; “adverse events of interest” i.e., ventricular arrhythmias requiring treatment and positively adjudicated major cardiac ischemic events (including myocardial infarction, hospitalization for unstable angina, coronary revascularization). […] All analyses were performed with the use of SAS software, version 9.4 (SAS Institute).
Excluding the discontinuations due to death, the study drug was stopped in 847 patients (20.6%) receiving omecamtiv mecarbil and 897 patients (21.9%) receiving placebo with 371 (9.0%) in the omecamtiv mecarbil group and 382 (9.3%) receiving placebo discontinuing due to an adverse event. Patients receiving omecamtiv mecarbil had no change in potassium or creatinine concentrations during the course of the trial compared to placebo. Patients receiving omecamtiv mecarbil had increased median concentrations of high sensitivity troponin-I from baseline of 0.004 ng/mL (lower limit of quantification, 0.010 ng/mL) compared to placebo at week 24. […] Ventricular arrhythmias were similar in patients receiving omecamtiv mecarbil compared to placebo (Table 3).
Continuous variables were summarized as means±standard deviations (SD) or medians and first and third quartiles (Q1, Q3), as appropriate. Categorical variables were summarized as counts and percentages. […] The change from baseline on NT-proBNP analysis included all participants who underwent randomization. The difference column is the exponentiated change from baseline on the log scale using a mixed model containing the log baseline value, region, baseline eGFR, scheduled visit, treatment group and interaction of treatment with scheduled visit.
Table 4 summarizes the adverse events reported in 1% or more of patients.

[2] = Pharmacokinetics in patients with hepatic impairment; format: in vivo, human; conditions: single dose 25 mg; mild (Child-Pugh A) or moderate (Child-Pugh B) hepatic impairment; result in words
Method: The pharmacokinetics of a single dose of OM 25 mg were evaluated in patients with mild (Child-Pugh A) or moderate (Child-Pugh B) hepatic impairment. The pharmacokinetics (Cmax and AUC) of OM in patients with mild or moderate hepatic impairment were similar to those in patients with normal hepatic function.

BCRP = molecular target: T1, BCRP (Homo sapiens, UniProt Q9UNQ0); test: Transporter substrate assessment; format: in vitro ADME; conditions: result in words
T1 sequence (Q9UNQ0 1-655): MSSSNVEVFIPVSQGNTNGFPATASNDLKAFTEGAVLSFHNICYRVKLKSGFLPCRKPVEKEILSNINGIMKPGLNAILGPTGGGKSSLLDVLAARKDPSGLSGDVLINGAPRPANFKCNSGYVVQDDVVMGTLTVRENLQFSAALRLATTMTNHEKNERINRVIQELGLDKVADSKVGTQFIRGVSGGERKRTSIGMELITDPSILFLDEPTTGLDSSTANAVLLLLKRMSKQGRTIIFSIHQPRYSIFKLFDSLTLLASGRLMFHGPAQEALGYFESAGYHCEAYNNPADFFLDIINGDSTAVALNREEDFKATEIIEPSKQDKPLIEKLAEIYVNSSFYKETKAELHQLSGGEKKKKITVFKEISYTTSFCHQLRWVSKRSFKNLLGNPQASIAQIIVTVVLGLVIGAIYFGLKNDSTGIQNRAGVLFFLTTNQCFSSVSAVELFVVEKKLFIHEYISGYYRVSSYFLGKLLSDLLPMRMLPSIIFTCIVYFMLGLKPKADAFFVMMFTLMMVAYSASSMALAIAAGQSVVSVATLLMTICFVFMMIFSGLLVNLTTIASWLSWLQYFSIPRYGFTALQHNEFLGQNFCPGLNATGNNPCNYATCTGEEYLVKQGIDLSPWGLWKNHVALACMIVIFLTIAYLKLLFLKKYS

[3] = Drug interactions: change in OM pharmacokinetics in the presence of co-administered drugs; format: in vivo, human
[4] = treatment-emergent serious adverse event, preferred term, N = 4110
[5] = CYP2D6 genotype: PM (N = 8) versus EM (N = 16)
[6] = with P-gp inhibitor amiodarone 600 mg SD, OM 50 mg SD, vs OM alone
[7] = with moderate CYP3A inhibitor diltiazem 240 mg QD × 8 days, OM 10 mg SD, vs OM alone
[8] = with pH modifying agent omeprazole 40 mg QD × 6 days, OM 50 mg SD, vs OM alone
[9] = with strong CYP3A and P-gp inhibitor ketoconazole 200 mg BID × 8 days, OM 10 mg SD, vs OM alone

COC(=O)N1CCN(Cc2cccc(NC(=O)Nc3ccc(C)nc3)c2F)CC1 [omecamtiv mecarbil]
Acute kidney injury, % ([1]; human, in vivo): (3.1) %
Acute myocardial infarction, % ([1]; human, in vivo): (1.7) %
Adjudicated major cardiac ischemic events, no. ([1]; human, in vivo): 200 no.
Adjudicated major cardiac ischemic events, relative risk ([1]; human, in vivo): 1.06
Angina pectoris, % ([1]; human, in vivo): (1.0) %
Angina unstable, % ([1]; human, in vivo): (1.5) %
Atrial fibrillation, % ([1]; human, in vivo): (2.3) %
Cardiac arrest, % ([1]; human, in vivo): (1.2) %
Cardiac failure acute, % ([1]; human, in vivo): (5.2) %
Cardiac failure chronic, % ([1]; human, in vivo): (3.8) %
Cardiac failure congestive, % ([1]; human, in vivo): (3.6) %
Cardiac failure, % ([1]; human, in vivo): (24.0) %
Cardiogenic shock, % ([1]; human, in vivo): (1.8) %
Chronic kidney disease, % ([1]; human, in vivo): (0.9) %
Chronic obstructive pulmonary disease, % ([1]; human, in vivo): (1.5) %
Coronary revascularization (adjudicated), % ([1]; human, in vivo): (2.8) %
Coronary revascularization (adjudicated), no. ([1]; human, in vivo): 115 no.
Drug discontinuation due to an adverse event, no. ([1]; human, in vivo): 371 no.
Drug discontinuation due to an adverse event, relative risk ([1]; human, in vivo): 0.97
Hospitalized for unstable angina (adjudicated), % ([1]; human, in vivo): (0.6) %
Hospitalized for unstable angina (adjudicated), no. ([1]; human, in vivo): 25 no.
Hypotension, % ([1]; human, in vivo): (1.2) %
Myocardial infarction (adjudicated major cardiac ischemic event), no. ([1]; human, in vivo): 122 no.
Myocardial infarction, % ([1]; human, in vivo): (0.9) %
Pneumonia, % ([1]; human, in vivo): (4.2) %
Renal failure, % ([1]; human, in vivo): (0.6) %
Renal impairment, % ([1]; human, in vivo): (0.6) %
Respiratory tract infection, % ([1]; human, in vivo): (0.4) %
Sepsis, % ([1]; human, in vivo): (1.2) %
Septic shock, % ([1]; human, in vivo): (0.9) %
Serious adverse events (subjects reporting treatment-emergent serious adverse events), % ([1]; human, in vivo): (57.7) %
Serious adverse events (subjects reporting treatment-emergent serious adverse events), no. ([1]; human, in vivo): 2373 no.
Serious adverse events, relative risk ([1]; human, in vivo): 0.97
Serious adverse ventricular arrhythmia requiring treatment, % ([1]; human, in vivo): (2.9) %
Serious adverse ventricular arrhythmia requiring treatment, no. ([1]; human, in vivo): 119 no.
Serious adverse ventricular arrhythmia requiring treatment, relative risk ([1]; human, in vivo): 0.93
Stroke, % ([1]; human, in vivo): (1.8) %
Stroke, no. ([1]; human, in vivo): 76 no.
Stroke, relative risk ([1]; human, in vivo): 0.68
Study drug stopped, % of patients ([1]; human, in vivo): 20.6%
Study drug stopped, no. of patients ([1]; human, in vivo): 847 no.
Syncope, % ([1]; human, in vivo): (1.0) %
Torsade de pointes/QT prolongation (narrow SMQ), % ([1]; human, in vivo): (4.3) %
Torsade de pointes/QT prolongation (narrow SMQ), no. ([1]; human, in vivo): 176 no.
Torsade de pointes/QT prolongation (narrow SMQ), relative risk ([1]; human, in vivo): 0.90
Ventricular fibrillation, % ([1]; human, in vivo): (0.7) %
Ventricular tachyarrhythmias (narrow SMQ), % ([1]; human, in vivo): (7.1) %
Ventricular tachyarrhythmias (narrow SMQ), no. ([1]; human, in vivo): 290 no.
Ventricular tachyarrhythmias (narrow SMQ), relative risk ([1]; human, in vivo): 0.95
Ventricular tachycardia, % ([1]; human, in vivo): (2.6) %
lschaemic stroke, % ([1]; human, in vivo): (0.9) %
Death, % [1, 4]: (1.6) %
Sudden cardiac death, % [1, 4]: (0.7) %
Sudden death, % [1, 4]: (1.3) %
Pharmacokinetics (Cmax and AUC) versus normal hepatic function [2]: similar
Substrate of BCRP (BCRP): substrate
% Change of OM AUC (↑ = increase) [3, 5]: ↑30%
% Change of OM Cmax (↓ = decrease) [3, 5]: ↓18%
Mean Ratio of OM AUC (90% CI) [3, 5]: 1.30 (0.93-1.82)
Mean Ratio of OM Cmax (90% CI) [3, 5]: 0.82 (0.63-1.07)
% Change of OM AUC (↑ = increase) [3, 6]: ↑ 21%
Mean Ratio of OM AUC (90% CI) [3, 6]: 1.21 (1.08-1.36)
Mean Ratio of OM Cmax (90% CI) [3, 6]: 1.08 (0.96-1.22)
% Change of OM Cmax (↓ = decrease) [3, 7]: ↓21%
Mean Ratio of OM AUC (90% CI) [3, 7]: 1.08 (0.97-1.22)
Mean Ratio of OM Cmax (90% CI) [3, 7]: 0.79 (0.60-1.04)
Mean Ratio of OM AUC (90% CI) [3, 8]: 0.95 (0.82-1.09)
Mean Ratio of OM Cmax (90% CI) [3, 8]: 1.01 (0.95-1.07)
% Change of OM AUC (↑ = increase) [3, 9]: ↑51%
Mean Ratio of OM AUC (90% CI) [3, 9]: 1.51 (1.20-1.91)
Mean Ratio of OM Cmax (90% CI) [3, 9]: 1.03 (0.76-1.40)
